Results published in ChEMBL document CHEMBL1152560, “Substituted 2-arylbenzothiazoles as kinase inhibitors: hit-to-lead optimization” (Bioorg Med Chem, 2009).

Legend:
[1] = target: Interferon-induced, double-stranded RNA-activated protein kinase (Homo sapiens) (UniProt P19525); test: Residual activity of EIF2AK2 at 1 uM by microplate scintillation counting
[2] = target: T1, cGMP-dependent protein kinase 2 (Homo sapiens) (UniProt Q13237); test: Residual activity of PRKG2 at 10 uM by microplate scintillation counting
T1 sequence (whole entry): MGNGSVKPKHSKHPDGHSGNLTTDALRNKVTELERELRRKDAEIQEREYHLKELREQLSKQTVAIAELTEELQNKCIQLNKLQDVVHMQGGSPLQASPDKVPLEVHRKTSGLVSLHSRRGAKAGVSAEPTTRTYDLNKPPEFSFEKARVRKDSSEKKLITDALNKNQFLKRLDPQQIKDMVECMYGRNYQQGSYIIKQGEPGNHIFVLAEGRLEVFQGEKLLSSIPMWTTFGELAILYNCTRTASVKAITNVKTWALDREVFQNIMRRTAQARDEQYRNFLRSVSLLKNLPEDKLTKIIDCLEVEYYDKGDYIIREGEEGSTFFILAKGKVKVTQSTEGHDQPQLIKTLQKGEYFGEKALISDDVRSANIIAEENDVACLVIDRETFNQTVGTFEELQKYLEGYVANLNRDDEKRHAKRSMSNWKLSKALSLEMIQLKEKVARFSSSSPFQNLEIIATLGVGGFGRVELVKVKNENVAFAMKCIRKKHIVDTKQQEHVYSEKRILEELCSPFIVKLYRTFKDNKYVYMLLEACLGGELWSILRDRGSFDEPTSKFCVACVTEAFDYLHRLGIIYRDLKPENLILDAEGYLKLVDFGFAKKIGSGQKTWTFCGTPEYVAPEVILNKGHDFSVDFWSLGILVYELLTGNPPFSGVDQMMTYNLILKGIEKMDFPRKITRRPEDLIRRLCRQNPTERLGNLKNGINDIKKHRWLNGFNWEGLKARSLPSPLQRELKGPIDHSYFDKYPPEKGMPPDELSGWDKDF

[3] = target: T2, Ephrin type-B receptor 1 (Homo sapiens) (UniProt P54762); test: Residual activity of EPHB1 at 1 uM by microplate scintillation counting
T2 sequence (whole entry): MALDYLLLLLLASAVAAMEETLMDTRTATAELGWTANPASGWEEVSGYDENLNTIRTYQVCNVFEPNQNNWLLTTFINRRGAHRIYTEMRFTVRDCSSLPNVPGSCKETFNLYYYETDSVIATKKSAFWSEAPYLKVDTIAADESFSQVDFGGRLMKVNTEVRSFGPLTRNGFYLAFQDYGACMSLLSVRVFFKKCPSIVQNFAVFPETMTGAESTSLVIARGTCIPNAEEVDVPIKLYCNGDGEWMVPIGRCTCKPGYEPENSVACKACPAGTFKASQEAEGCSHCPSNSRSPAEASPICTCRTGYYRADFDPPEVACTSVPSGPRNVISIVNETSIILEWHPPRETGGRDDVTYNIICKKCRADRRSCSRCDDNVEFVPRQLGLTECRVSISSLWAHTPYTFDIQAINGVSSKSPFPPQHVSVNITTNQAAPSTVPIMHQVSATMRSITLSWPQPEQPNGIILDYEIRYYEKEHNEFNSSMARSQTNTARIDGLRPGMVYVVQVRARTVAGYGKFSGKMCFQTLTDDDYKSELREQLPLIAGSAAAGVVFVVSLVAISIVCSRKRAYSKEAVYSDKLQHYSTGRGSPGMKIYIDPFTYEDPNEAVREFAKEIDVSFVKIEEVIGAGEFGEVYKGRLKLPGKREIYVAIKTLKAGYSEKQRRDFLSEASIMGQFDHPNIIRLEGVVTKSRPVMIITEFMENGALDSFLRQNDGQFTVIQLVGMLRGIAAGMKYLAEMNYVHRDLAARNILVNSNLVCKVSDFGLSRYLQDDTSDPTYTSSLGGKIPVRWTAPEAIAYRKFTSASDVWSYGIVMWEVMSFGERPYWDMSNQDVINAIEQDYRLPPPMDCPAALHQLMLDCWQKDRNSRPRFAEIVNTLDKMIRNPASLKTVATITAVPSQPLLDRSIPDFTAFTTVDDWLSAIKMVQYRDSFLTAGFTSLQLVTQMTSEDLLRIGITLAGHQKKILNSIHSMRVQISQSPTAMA

[4] = target: T3, Inhibitor of nuclear factor kappa-B kinase subunit alpha (Homo sapiens) (UniProt O15111); test: Residual activity of IKKalpha at 10 uM by microplate scintillation counting
T3 sequence (whole entry): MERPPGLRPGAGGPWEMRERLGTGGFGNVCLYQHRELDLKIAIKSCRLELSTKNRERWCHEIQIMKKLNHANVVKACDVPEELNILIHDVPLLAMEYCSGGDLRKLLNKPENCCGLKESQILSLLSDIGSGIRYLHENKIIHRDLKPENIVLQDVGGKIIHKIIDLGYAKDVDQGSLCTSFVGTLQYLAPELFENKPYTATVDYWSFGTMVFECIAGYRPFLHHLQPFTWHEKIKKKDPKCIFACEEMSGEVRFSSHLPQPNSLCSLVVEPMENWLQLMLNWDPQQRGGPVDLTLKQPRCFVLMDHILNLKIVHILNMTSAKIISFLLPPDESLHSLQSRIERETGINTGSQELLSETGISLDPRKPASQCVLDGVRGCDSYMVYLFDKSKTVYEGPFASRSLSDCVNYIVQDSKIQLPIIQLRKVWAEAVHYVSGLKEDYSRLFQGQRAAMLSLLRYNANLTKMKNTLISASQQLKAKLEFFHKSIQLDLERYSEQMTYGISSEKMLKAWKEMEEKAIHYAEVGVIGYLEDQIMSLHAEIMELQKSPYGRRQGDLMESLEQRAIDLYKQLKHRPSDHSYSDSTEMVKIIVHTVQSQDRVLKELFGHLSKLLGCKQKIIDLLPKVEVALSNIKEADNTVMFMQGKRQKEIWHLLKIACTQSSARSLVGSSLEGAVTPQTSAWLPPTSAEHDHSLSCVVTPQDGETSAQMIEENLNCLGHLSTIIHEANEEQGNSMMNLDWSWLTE

[5] = target: CDK1/Cyclin E (Homo sapiens) (UniProt P06493+P24864); test: Residual activity of CDK1/Cyclin E at 0.1 uM by microplate scintillation counting; assay type: protein-complex assay
CDK1/Cyclin E (Homo sapiens), sequence (P06493 whole entry, looked up): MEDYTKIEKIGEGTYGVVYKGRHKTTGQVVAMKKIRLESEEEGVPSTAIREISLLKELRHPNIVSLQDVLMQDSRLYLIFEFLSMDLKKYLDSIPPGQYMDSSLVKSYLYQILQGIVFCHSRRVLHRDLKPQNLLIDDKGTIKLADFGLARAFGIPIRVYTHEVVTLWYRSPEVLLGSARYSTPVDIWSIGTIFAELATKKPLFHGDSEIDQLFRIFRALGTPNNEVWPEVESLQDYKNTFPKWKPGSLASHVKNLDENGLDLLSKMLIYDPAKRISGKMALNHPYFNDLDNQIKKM
CDK1/Cyclin E (Homo sapiens), sequence (P24864 whole entry, looked up): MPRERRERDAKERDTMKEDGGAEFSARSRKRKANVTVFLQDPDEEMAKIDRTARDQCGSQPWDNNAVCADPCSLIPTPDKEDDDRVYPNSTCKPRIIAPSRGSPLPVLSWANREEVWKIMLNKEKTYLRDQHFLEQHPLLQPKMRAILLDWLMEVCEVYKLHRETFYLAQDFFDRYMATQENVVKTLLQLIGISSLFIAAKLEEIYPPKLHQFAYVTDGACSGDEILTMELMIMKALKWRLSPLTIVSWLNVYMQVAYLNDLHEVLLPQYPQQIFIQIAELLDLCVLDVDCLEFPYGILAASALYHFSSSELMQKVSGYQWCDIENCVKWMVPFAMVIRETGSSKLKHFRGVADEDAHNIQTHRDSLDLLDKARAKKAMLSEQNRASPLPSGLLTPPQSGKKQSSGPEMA

[6] = target: Serine/threonine-protein kinase WNK2 (Homo sapiens) (UniProt Q9Y3S1); test: Residual activity of WNK2 at 0.1 uM by microplate scintillation counting
Serine/threonine-protein kinase WNK2 (Homo sapiens), sequence (Q9Y3S1 whole entry): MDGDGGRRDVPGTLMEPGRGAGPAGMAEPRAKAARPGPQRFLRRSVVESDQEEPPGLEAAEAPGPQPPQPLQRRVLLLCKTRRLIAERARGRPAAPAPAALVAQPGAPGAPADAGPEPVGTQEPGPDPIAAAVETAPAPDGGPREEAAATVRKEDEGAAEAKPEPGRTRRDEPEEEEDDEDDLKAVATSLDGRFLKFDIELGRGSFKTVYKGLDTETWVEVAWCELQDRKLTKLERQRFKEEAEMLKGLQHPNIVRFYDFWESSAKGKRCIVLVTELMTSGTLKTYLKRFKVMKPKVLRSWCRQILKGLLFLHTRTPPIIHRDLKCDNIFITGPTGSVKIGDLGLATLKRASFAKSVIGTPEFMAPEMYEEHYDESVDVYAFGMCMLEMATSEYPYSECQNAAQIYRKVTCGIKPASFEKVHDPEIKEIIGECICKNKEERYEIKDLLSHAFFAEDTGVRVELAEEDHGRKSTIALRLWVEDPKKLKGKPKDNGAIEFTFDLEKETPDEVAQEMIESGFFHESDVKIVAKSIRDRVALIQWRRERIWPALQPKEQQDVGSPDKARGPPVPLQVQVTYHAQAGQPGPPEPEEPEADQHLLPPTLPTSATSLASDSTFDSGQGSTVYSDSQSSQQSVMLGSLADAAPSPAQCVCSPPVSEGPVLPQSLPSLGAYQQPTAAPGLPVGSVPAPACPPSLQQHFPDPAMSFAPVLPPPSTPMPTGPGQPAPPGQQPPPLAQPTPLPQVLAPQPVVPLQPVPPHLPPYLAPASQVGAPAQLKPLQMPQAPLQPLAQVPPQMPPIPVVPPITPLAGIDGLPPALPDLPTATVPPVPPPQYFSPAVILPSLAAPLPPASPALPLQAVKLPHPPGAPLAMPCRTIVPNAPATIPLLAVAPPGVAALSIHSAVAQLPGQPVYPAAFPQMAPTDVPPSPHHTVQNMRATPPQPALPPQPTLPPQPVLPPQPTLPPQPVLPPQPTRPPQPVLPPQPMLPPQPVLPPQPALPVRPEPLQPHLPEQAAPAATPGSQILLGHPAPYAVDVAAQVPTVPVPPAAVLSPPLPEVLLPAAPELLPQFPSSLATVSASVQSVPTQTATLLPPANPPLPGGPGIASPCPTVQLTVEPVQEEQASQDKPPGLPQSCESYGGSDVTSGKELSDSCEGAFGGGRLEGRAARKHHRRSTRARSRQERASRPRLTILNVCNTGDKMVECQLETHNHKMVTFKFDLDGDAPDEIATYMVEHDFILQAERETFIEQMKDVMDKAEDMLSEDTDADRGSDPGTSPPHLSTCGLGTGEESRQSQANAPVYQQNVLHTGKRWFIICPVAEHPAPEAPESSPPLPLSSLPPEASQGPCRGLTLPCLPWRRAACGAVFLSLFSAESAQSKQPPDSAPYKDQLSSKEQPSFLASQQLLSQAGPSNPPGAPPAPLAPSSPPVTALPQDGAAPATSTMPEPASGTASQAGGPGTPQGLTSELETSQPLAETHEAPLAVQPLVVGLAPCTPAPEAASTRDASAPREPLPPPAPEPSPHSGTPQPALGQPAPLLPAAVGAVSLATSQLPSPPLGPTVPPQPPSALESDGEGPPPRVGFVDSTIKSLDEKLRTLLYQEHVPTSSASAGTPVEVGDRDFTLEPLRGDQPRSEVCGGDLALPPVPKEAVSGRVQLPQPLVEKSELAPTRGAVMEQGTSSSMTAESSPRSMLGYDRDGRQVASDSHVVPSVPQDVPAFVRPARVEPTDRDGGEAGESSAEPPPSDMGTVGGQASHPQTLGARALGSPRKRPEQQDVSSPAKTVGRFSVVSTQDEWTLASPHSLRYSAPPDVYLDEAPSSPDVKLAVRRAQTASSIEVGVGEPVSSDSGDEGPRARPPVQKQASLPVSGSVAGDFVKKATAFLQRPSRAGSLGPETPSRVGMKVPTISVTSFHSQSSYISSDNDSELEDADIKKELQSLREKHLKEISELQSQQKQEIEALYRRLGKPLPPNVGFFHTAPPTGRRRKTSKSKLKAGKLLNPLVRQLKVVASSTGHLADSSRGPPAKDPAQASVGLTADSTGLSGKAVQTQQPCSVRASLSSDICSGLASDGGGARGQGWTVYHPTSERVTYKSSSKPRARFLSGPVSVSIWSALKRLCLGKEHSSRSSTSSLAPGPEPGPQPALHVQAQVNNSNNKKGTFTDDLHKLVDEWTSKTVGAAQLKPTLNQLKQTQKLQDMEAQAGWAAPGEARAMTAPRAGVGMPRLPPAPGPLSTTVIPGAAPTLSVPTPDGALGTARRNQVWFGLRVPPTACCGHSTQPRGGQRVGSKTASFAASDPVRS

[7] = target: Serine/threonine-protein kinase PAK 2 (Homo sapiens) (UniProt Q13177); test: Residual activity of PAK2 at 10 uM by microplate scintillation counting
Serine/threonine-protein kinase PAK 2 (Homo sapiens), sequence (Q13177 whole entry): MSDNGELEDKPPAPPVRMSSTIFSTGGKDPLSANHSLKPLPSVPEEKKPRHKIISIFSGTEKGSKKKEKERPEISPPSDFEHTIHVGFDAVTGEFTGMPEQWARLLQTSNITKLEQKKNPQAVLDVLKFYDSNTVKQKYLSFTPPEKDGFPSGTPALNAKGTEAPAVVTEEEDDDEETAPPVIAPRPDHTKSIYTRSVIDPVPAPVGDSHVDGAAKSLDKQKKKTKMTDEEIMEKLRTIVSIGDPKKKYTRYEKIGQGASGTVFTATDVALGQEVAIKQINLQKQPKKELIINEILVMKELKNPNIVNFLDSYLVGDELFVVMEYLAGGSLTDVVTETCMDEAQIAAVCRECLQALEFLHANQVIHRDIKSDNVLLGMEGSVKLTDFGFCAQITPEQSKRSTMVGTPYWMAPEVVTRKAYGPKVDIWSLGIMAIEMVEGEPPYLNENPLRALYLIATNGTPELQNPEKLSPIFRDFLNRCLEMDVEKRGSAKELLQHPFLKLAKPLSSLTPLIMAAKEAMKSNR

Interferon-induced, double-stranded RNA-activated protein kinase (Homo sapiens), sequence (P19525 whole entry): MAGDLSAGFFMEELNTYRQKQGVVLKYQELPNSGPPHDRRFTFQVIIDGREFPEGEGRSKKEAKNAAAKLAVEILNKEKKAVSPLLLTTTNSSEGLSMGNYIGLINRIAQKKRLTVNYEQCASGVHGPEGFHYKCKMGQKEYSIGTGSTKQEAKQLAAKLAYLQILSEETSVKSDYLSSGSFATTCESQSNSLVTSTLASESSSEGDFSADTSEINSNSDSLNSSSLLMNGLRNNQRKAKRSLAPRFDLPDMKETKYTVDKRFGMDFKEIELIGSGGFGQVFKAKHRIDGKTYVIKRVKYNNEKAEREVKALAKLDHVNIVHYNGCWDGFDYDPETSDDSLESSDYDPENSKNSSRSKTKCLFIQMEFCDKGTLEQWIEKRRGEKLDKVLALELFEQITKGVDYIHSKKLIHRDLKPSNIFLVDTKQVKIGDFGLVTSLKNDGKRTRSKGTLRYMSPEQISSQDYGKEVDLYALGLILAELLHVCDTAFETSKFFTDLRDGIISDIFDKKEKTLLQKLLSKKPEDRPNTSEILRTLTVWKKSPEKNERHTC

residual activity [1] [%]	residual activity [2] [%]	residual activity [3] [%]	residual activity [4] [%]	residual activity [5] [%]	residual activity [6] [%]	residual activity [7] [%]	Compound
83	92	102	122	78	81	49	COc1cc2c(Oc3ccc(-c4nc5ccccc5s4)cc3)ncnc2cc1OCCCN1CCCC1
72	96	134	135	89	87	48	COc1cc2c(Oc3ccc(-c4nc5ccccc5s4)cc3F)ncnc2cc1OCCCN1CCN(C)CC1
73	119	124	130	85	74	54	COc1cc2c(Oc3ccc(-c4nc5ccccc5s4)cc3)ncnc2cc1OCCCN1CCN(C)CC1
